Data on 25 compounds can be found in patent EP1873155A1, “Inhibitors of the HIV integrase enzyme” (PFIZER INC., priority 2004, dated 2005).

The structures appear in SMILES notation.

For the test, the system named is RF strain of HIV-1. Briefly: HIV-1 cell protection assay (XTT dye reduction). It is filed as cell-based. The settings on record: Human immunodeficiency virus 1, CEM-SS, 144 h, CEM-SS cells infected with HIV-1 RF, six days, XTT formazan; read-out: EC50. Here is the method:
Example 61: HIV-1 Cell Protection Assay
The antiviral activities of potential modulator compounds (test compounds) were determined in HIV-1 cell protection assays using the RF strain of HIV-1, CEM-SS cells, and the XTT dye reduction method (Weislow, O.S. et al., J. Natl. Cancer Inst. 81: 577-586 (1989)). Subject cells were infected with HIV-1 RF virus at an moi of 0.025 to 0.819 or mock infected with medium only and added at 2 x 10^4 cells per well into 96 well plates containing half-log dilutions of test compounds. Six days later, 50 µl of XTT solution (1 mg/ml XTT tetrazolium and […] phenazine methosulfate) were added to the wells and the plates were reincubated for four hours. Viability, as determined by the amount of XTT formazan produced, was quantified spectrophotometrically by absorbance at 450 nm.
Data from CPE assays were expressed as the percent of formazan produced in compound-treated cells compared to formazan produced in wells of uninfected, compound-free cells. […] The therapeutic index was calculated by dividing the cytotoxicity (CC50) by the antiviral activity (EC50).
For orientation: Formazan colour is commonly taken as a measure of viable cells.

A word on the EC50: it is the concentration needed to bring the measured effect to its halfway point. On to `O=c1c2ncc3c(c(COCCc4ccccn4)cn3Cc3ccc(F)cc3)c2ccn1O` [Example 33, 3-(4-fluorobenzyl)-7-hydroxy-1-[(2-pyridin-2-ylethoxy)methyl]-3,7-dihydro-6H-pyrrolo[2,3-c]-1,7-naphthyridin-6-one], for which the half-maximal effective concentration (EC50) was determined as 3 nM.

Consider `O=c1c2ncc3c(c(COCCOC4CCCCC4)cn3Cc3ccc(F)cc3)c2ccn1O` [Example 34, 1-{[2-(cyclohexyloxy)ethoxy]methyl}-3-(4-fluorobenzyl)-7-hydroxy-3,7-dihydro-6H-pyrrolo[2,3-c]-1,7-naphthyridin-6-one], for which the EC50 stood at 2 nM. Take `COCCOCc1cn(Cc2ccc(F)cc2)c2cnc3c(=O)n(O)ccc3c12` [Example 36, 3-(4-fluorobenzyl)-7-hydroxy-1-[(2-methoxyethoxy)methyl]-3,7-dihydro-6H-pyrrolo[2,3-c]-1,7-naphthyridin-6-one]: the concentration giving a half-maximal response (EC50) is 0.4 nM. In the case of `O=c1c2ncc3c(c(COC4CCOCC4)cn3Cc3ccc(F)cc3)c2ccn1O` [Example 37, 3-(4-fluorobenzyl)-7-hydroxy-1-[(tetrahydro-2H-pyran-4-yloxy)methyl]-3,7-dihydro-6H-pyrrolo[2,3-c]-1,7-naphthyridin-6-one], the EC50 was determined as 1 nM. As to `O=c1c2ncc3c(c(CNC4(CO)CCCC4)cn3Cc3ccc(F)cc3)c2ccn1O` [Example 39, 3-(4-fluorobenzyl)-7-hydroxy-1-({[1-(hydroxymethyl)cyclopentyl]amino}methyl)-3,7-dihydro-6H-pyrrolo[2,3-c]-1,7-naphthyridin-6-one], the EC50 came out at 4 nM. As to `CCCNCc1cn(Cc2ccc(F)cc2)c2cnc3c(=O)n(O)ccc3c12` [Example 40, 3-(4-fluorobenzyl)-7-hydroxy-1-[(propylamino)methyl] -3,7-dihydro-6H-pyrrolo[2,3-c]-1,7-naphthyridin-6-one], the concentration giving a half-maximal response (EC50) came to 2 nM. Regarding `Cc1cccc(CNCc2cn(Cc3ccc(F)cc3)c3cnc4c(=O)n(O)ccc4c23)c1` [Example 41, 3-(4-fluorobenzyl)-7-hydroxy-1-{[(3-methylbenzyl)amino]methyl}-3,7-dihydro-6H-pyrrolo[2,3-c]-1,7-naphthyridin-6-one], the EC50 was 3 nM.

For the compound `Cc1cnc(CNCc2cn(Cc3ccc(F)cc3)c3cnc4c(=O)n(O)ccc4c23)cn1` [Example 42, 3-(4-fluorobenzyl)-7-hydroxy-1-({[(5-methylpyrazin-2-yl)methyl]amino}methyl)-3,7-dihydro-6H-pyrrolo[2,3-c]-1,7-naphthyridin-6-one], the EC50 amounted to 3 nM. With `O=c1c2ncc3c(c(CNCc4ccc(C(F)(F)F)cc4)cn3Cc3ccc(F)cc3)c2ccn1O` [Example 43, 3-(4-fluorobenzyl)-7-hydroxy-1-({[4-(trifluoromethyl)benzyl]amino)methyl)-3,7-dihydro-6H-pyrrolo[2,3-c]-1,7-naphthyridin-6-one], the concentration giving a half-maximal response (EC50) was determined as 0.8 nM. With `O=c1c2ncc3c(c(CNCc4ccccn4)cn3Cc3ccc(F)cc3)c2ccn1O` [Example 44, 3-(4-fluorobenzyl)-7-hydroxy-1-{[(pyridin-2-ylmethyl)amino]methyl}-3,7-dihydro-6H-pyrrolo[2,3-c]-1,7-naphthyridin-6-one], the EC50 was 0.74 nM.

Consider `O=C1c2ncc3c(ccn3Cc3ccc(F)cc3)c2CCCN1O` [Example 45, 3-(4-fluorobenzyl)-7-hydroxy-7,8,9,10-tetrahydropyrrolo[3',2' :4,5]pyrido[2,3-c]azepin-6(3H)-one], for which the EC50 worked out at 20 nM. Turning to `CCCCc1cc2c(ncc3c2ccn3Cc2ccc(F)cc2)c(=O)n1O` [Example 46, 8-butyl-3-(4-fluorobenzyl)-7-hydroxy-3,7-dihydro-6H-pyrrolo[2,3-c]-1,7-naphthyridin-6-one], the EC50 was 9.6 nM.

`Cc1cc2c(ncc3c2ccn3Cc2ccc(F)cc2)c(=O)n1O` [Example 47, 3-(4-fluorobenzyl)-7-hydroxy-8-methyl-3,7-dihydro-6H-pyrrolo[2,3-c]-1,7-naphthyridin-6-one]: the EC50 came to 0.23 nM. Regarding `CCCN(CCO)Cc1cn(Cc2ccc(F)cc2)c2cnc3c(=O)n(O)ccc3c12` [Example 48, 3-(4-fluorobenzyl)-7-hydroxy-1-{[(2-hydroxyethyl)(propyl)amino]methyl}-3,7-dihydro-6H-pyrrolo[2,3-c]-1,7-naphthyridin-6-one], the half-maximal effective concentration (EC50) was 1.2 nM.

As for `O=c1c2ncc3c(c(CN4CCCCC4CO)cn3Cc3ccc(F)cc3)c2ccn1O` (stereo not shown) [Example 49, 3-(4-fluorobenzyl)-7-hydroxy-1-{[2-(hydroxymethyl)piperidin-1-yl]methyl}-3,7-dihydro-6H-pyrrolo[2,3-c]-1,7-naphthyridin-6-one], the EC50 is 14 nM.

On to `CCN(CC)CCN(CC)Cc1cn(Cc2ccc(F)cc2)c2cnc3c(=O)n(O)ccc3c12` [Example 50, 1-{[[2-(diethylamino)ethyl](ethyl)amino]methyl}-3-(4-fluorobenzyl)-7-hydroxy-3,7-dihydro-6H-pyrrolo[2,3-c]-1,7-naphthyridin-6-one], for which the EC50 came to 8.6 nM. Consider `CCN(Cc1ccc(C)cc1)Cc1cn(Cc2ccc(F)cc2)c2cnc3c(=O)n(O)ccc3c12` [Example 51, 1-{[ethyl(4-methylbenzyl)amino]methyl}-3-(4-fluorobenzyl)-7-hydroxy-3,7-dihydro-6H-pyrrolo[2,3-c]-1,7-naphthyridin-6-one], for which the EC50 was found to be 1.3 nM. As to `CCS(=O)(=O)N1CCN(Cc2cn(Cc3ccc(F)cc3)c3cnc4c(=O)n(O)ccc4c23)CC1` [Example 52, 1-{[4-(ethylsulfonyl)piperazin-1-yl]methyl}-3-(4-fluorobenzyl)-7-hydroxy-3,7-dihydro-6H-pyrrolo[2,3-c]-1,7-naphthyridin-6-one], the EC50 is 1.6 nM. Consider `O=c1c2ncc3c(c(CN4CCC(O)CC4)cn3Cc3ccc(F)cc3)c2ccn1O` [Example 53, 3-(4-fluorobenzyl)-7-hydroxy-1-[(4-hydroxypiperidin-1-yl)methyl]-3,7-dihydro-6H-pyrrolo[2,3-c]-1,7-naphthyridin-6-one], for which the EC50 was 13 nM. As for `CN(Cc1ccccc1)Cc1cn(Cc2ccc(F)cc2)c2cnc3c(=O)n(O)ccc3c12` [Example 54, 1-{[benzyl(methyl)amino]methyl}-3-(4-fluorobenzyl)-7-hydroxy-3,7-dihydro-6H-pyrrolo[2,3-c]-1,7-naphthyridin-6-one], the EC50 was found to be 0.42 nM. As for `O=c1c2ncc3c(c(CN4CCN5C[C@H](O)CC5C4)cn3Cc3ccc(F)cc3)c2ccn1O` (stereo partly drawn) [Example 55, 3-(4-fluorobenzyl)-7-hydroxy-1-{[(7R)-7-hydroxyhexahydropyrrolo[1,2-a]pyrazin-2(1 H)-yl]methyl}-3,7-dihydro-6H-pyrrolo[2,3-c]-1,7-naphthyridin-6-one], the figure is 69 nM; as for `O=C1NC[C@@H]2CCN(Cc3cn(Cc4ccc(F)cc4)c4cnc5c(=O)n(O)ccc5c34)C[C@H]12` [Example 56, 3-(4-fluorobenzyl)-7-hydroxy-1-{[(3aR,7aR)-3-oxooctahydro-5H-pyrrolo[3,4-c]pyridin-5-yl]methyl}-3,7-dihydro-6H-pyrrolo[2,3-c]-1,7-naphthyridin-6-one], 14 nM; as for `O=c1c2ncc3c(c(CN4CCOCC4)cn3Cc3ccc(F)cc3)c2ccn1O` [Example 57, 3-(4-fluorobenzyl)-7-hydroxy-1-(morpholin-4-ylmethyl)-3,7-dihydro-6H-pyrrolo[2,3-c]-1,7-naphthyridin-6-one], 0.32 nM. Regarding `O=c1c2ncc3c(c(CN4CCN(CCN5CCOCC5)CC4)cn3Cc3ccc(F)cc3)c2ccn1O` [Example 58, 3-(4-fluorobenzyl)-7-hydroxy-1-{[4-(2-morpholin-4-ylethyl)piperazin-1-yl]methyl}-3,7-dihydro-6H-pyrrolo[2,3-c]-1,7-naphthyridin-6-one], the EC50 worked out at 32 nM.

With `CN(Cc1cnn(-c2ccccc2)c1)Cc1cn(Cc2ccc(F)cc2)c2cnc3c(=O)n(O)ccc3c12` [Example 59, 3-(4-fluorobenzyl)-7-hydroxy-1-({methyl[(1-phenyl-1 H-pyrazol-4-yl)methyl]amino}methyl)-3,7-dihydro-6H-pyrrolo[2,3-c]-1,7-naphthyridin-6-one], the EC50 is 0.74 nM.
